Assay results as given in PubChem BioAssay AID489020 (Sanford-Burnham Center for Chemical Genomics, 2010).
Active and inactive are the calls of the source.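 How the source made its calls: active means mean IC50, the dose halving TNF-driven NF-kB light signal, at or below a set limit; inactive means the rest.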

System: HEK-293T NF-kB-Luc, TNFa-induced, luminescence, 14 h
Test: inhibitors of TNFa-induced NF-kB reporter, dose response, counter-screen for BCR/TCR NF-kB inhibitor project, cell-based, HEK-293T NF-kB-Luc, luminescence, hits from both screens (AID 489020);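 further: TNF-alpha stimulus at 0.1 ng/mL added with the seeded cells; selectivity counterscreen for hits from B- and T-cell receptor NF-kB screens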

Row | SMILES | IC50
1 | C=C1C(=O)O[C@@H]2C[C@@H](C)[C@@H]3C=CC(=O)[C@@]3(C)[C@@H](OC(=O)CC(=O)O[C@H]3[C@@H]4C(=C)C(=O)O[C@@H]4C[C@@H](C)[C@@H]4C=CC(=O)[C@]43C)[C@H]12 | 1.48 µM
2 | COCCn1c(C)cc(C2=NNC(=NC3CC3)SC2)c1C | 0.33 µM
3 | COc1ccc(C(=O)Nc2nc3ccccc3s2)c(OC)c1 | 0.22 µM
4 | C=C1C(=O)O[C@@H]2C[C@@H](C)[C@@H]3C=CC(=O)[C@@]3(C)[C@@H](O)[C@H]12 | > 80 µM (inactive)
5 | Cc1nn(-c2ccccc2)c(C)c1/C=N/NC(=O)c1cc(-c2cccs2)[nH]n1 | 3.54 µM
6 | c1ccc2sc(Sc3ncnc4sccc34)nc2c1 | 21.4 µM (inactive)
7 | COc1ccc(CCNc2ncnc3sccc23)cc1OC | < 0.16 µM
8 | C[C@@H]1O[C@@H](O[C@@H]2C=C3CC[C@@H]4C(CC[C@]5(C)[C@@H](c6ccc(=O)oc6)CC[C@]45O)[C@@]3(C)CC2)[C@H](O)[C@H](O)[C@H]1O (stereo partly drawn) | < 0.16 µM
9 | OCCCNc1cc(-c2ccnc(Nc3cccc(Cl)c3)n2)ccn1 | 0.38 µM
10 | C[C@@H]1C[C@@H]2O[C@H]2/C=C\C=C\C(=O)Cc2c(Cl)c(O)cc(O)c2C(=O)O1 | 7.67 µM
11 | Cc1ccc(OCCN2CCN(c3ncnc4sc(C)c(C)c34)CC2)cc1 | < 0.16 µM
12 | CCCCCCCCNc1ncnc2ccccc12 | < 0.16 µM
13 | O=C1/C(=C/c2ccccc2)C[C@@]2(O)[C@H]3Cc4ccc(O)c5c4[C@@]2(CCN3CC2CC2)C1O5 (stereo partly drawn) | 8.71 µM
14 | CCCCCn1c(=O)[nH]c2cc(C(=O)N3CCN(Cc4ccc5c(c4)OCO5)CC3)ccc2c1=O | < 0.16 µM
15 | CN(C)c1ccc(-c2n(C)c3ccccc3[n+]2C)cc1 | 6.58 µM
16 | CCCCCCCCn1ccc(=N)cc1 | 10.8 µM
17 | Cc1cc([N+](=O)[O-])nn1Cc1ccccc1F | > 80 µM (inactive)
18 | O=C(Nc1nc(-c2ccc(F)c(F)c2)cs1)c1ccc(OCC2CCCO2)cc1 (stereo not drawn) | 1.56 µM
19 | COc1ccc(CCNc2ncnc3sc(C)cc23)cc1OC | < 0.16 µM
20 | CC(=O)O[C@H]1[C@H]2O[C@]23[C@@H]2CC[C@]4(O)C[C@@H](O)CC[C@]4(C)C2CC[C@]3(C)[C@H]1c1ccc(=O)oc1 (stereo partly drawn) | < 0.16 µM
21 | C=CC(=O)Nc1ccc(Nc2nc(NC3CCC(N(C)C)CC3)nc3c2ncn3C(C)C)cc1 (stereo not drawn) | 0.41 µM
22 | CC(C)(O)c1[nH]c2ccc(C#N)cc2c1C(C)(C)O | 65.8 µM (inactive)

Row | SMILES | IC50
23 | CCOc1cc(S(=O)(=O)NCc2ccncc2)ccc1Cl | < 0.16 µM
24 | COc1ccc(OC)c(C2C3=C(COC3=O)Nc3cc4c(cc32)OCO4)c1 (stereo not drawn) | > 80 µM (inactive)
25 | Cc1sc2ncnc(N3CCN(CCOc4ccc(Cl)cc4)CC3)c2c1C | < 0.16 µM
26 | O=C(Nc1ccc(Cl)cc1)Nc1cccc(C(=O)O)c1 | 10.6 µM
27 | O=C(CCl)N1CCCC1c1ccc2c(c1)OCCO2 (stereo not drawn) | 9.33 µM
28 | Cn1nc(C(C)(C)C)cc1C(=O)NCc1ccc(N2CCCC2=O)cc1 | 2.01 µM
29 | CCCCCCn1c2c(c(=N)c3c1CCC3)CCC2 | 0.95 µM
30 | CC(C)(C)c1ccc(C(=O)Nc2ccc(CC(=O)O)cc2)o1 | 0.17 µM
31 | Cc1ccc(C(=O)Nc2cccc(C(F)(F)F)c2)cc1NC(=O)c1ccno1 | > 80 µM (inactive)
32 | Nc1nc(Cl)nc2c1ncn2C1CC(O)C(CO)O1 (stereo not drawn) | > 80 µM (inactive)
33 | COC(=O)Cc1ccc(NC(=O)c2ccc(C(C)(C)C)cc2)cc1 | 0.44 µM
34 | CC(Nc1ncnc2sccc12)c1ccccc1 (stereo not drawn) | 0.6 µM
35 | CCOc1ccc(/C=C2\SC(=S)N(CCC(=O)O)C2=O)cc1 | 34.2 µM (inactive)
36 | CC(=O)OC[C@]12CCC(C)=C[C@H]1O[C@@H]1[C@H](O)[C@@H](OC(C)=O)[C@@]2(C)[C@]12CO2 | < 0.16 µM
37 | CCc1ccc(-c2nc(CS(=O)CC(=O)NCc3ccco3)c(C)o2)cc1 (stereo not drawn) | 57.9 µM (inactive)
38 | O=C(NCCc1ccccc1)c1ccc2c(c1)OCCCO2 | 0.9 µM
39 | C[C@@H]1O[C@@H](O[C@@H]2C=C3CCC4C(CC[C@]5(C)[C@@H](c6ccc(=O)oc6)CC[C@]45O)[C@@]3(C)CC2)[C@H](O)[C@H](O)[C@H]1O (stereo partly drawn) | < 0.16 µM
40 | COc1ccc(-c2c[n+]3c(n2-c2ccc(C)cc2)CCCCC3)cc1 | 1.62 µM
41 | COc1cccc(NC(=O)Nc2cccc(C(=O)O)c2)c1 | 5.44 µM
42 | COc1ccc(CCNc2c(C)c(C)nc3ncnn23)cc1 | 0.44 µM
43 | CCOc1ccc(-c2cc(CCCC(=O)Nc3cccc(OC)c3)no2)cc1 | 14 µM
